Data on 59 compounds can be found in patent publication US7101878B1 (Agouron Pharmaceuticals, Inc., priority 1998, dated 2006).

This assay addresses T1, mouse GnRH receptor (Mus musculus, UniProt Q01776).
T1 construct: expressed in transfected cells; host or cells: 293 cells
T1 sequence (Q01776 1-327): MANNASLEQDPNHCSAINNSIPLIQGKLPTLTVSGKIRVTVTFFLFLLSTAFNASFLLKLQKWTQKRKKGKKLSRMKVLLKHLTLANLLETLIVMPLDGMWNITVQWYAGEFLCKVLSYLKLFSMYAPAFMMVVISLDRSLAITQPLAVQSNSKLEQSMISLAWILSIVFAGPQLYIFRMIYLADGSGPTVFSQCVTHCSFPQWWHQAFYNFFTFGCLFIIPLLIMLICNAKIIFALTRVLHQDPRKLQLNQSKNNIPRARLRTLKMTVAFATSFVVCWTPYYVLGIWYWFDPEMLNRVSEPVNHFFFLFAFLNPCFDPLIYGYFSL
Briefly: Radioligand binding, 125I-GnRH-A, 293 cells expressing mouse GnRH receptors. The conditions noted are these: 1 h, substrate remaining; 10 uM compound; closer to zero = closer to 100% inhibition; read-out: S%R 10 uM mGnRHR. In short, it runs like this: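 Bound label captured on 0.1% polyethyleneimine-treated GF/C filters, washed three times with PBS, counted. IC50 derived; identical set-up for every species.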
Regarding `Cc1cc2c(cc1Cc1ccc(C(=O)N(CCC3CCCN3C)Cc3ccc4ccccc4c3)o1)C(C)(C)CCC2(C)C` (centres unmarked) [Compound 598], the remaining activity at 10 µM is -4%. The result for `CC(=O)N1CCCN(C(=O)c2ccc(Cc3cc4c(cc3C)C(C)(C)CCC4(C)C)o2)CC1` [Compound 599] reads 28%; that for `Cc1cc2c(cc1Cc1ccc(C(=O)N3CCC(CCCC4CCN(CCO)CC4)CC3)o1)C(C)(C)CCC2(C)C` [Compound 600], -4%. The result for `Cc1cc2c(cc1Cc1ccc(C(=O)NCC(C)(C)CO)o1)C(C)(C)CCC2(C)C` [Compound 601] reads 17%.

Consider `Cc1cc2c(cc1Cc1ccc(C(=O)NCCNc3cccc4ccccc34)o1)C(C)(C)CCC2(C)C` [Compound 602], for which the remaining activity at 10 µM is 44%.

`Cc1cc2c(cc1Cc1ccc(C(=O)N(CCN3CCCCC3)Cc3ccccc3)o1)C(C)(C)CCC2(C)C` [Compound 603]: the remaining activity at 10 µM was -4%.

As for `Cc1cc2c(cc1Cc1ccc(C(=O)NCc3ccc(F)cc3)o1)C(C)(C)CCC2(C)C` [Compound 604], the remaining activity at 10 µM came out at 4%. As for `Cc1cc2c(cc1Cc1ccc(C(=O)N3CCC(C)CC3)o1)C(C)(C)CCC2(C)C` [Compound 605], the figure is 19%; as for `Cc1cc2c(cc1Cc1ccc(C(=O)N(Cc3ccco3)C3CC(=O)N(C)C3=O)o1)C(C)(C)CCC2(C)C` (centres unmarked) [Compound 606], 32%. With `COC(CNC(=O)c1ccc(Cc2cc3c(cc2C)C(C)(C)CCC3(C)C)o1)OC` [Compound 607], the remaining activity at 10 µM was -2%. As for `Cc1cc2c(cc1Cc1ccc(C(=O)N(C)CCCN(C)C)o1)C(C)(C)CCC2(C)C` [Compound 608], the figure is 8%. Turning to `Cc1cc2c(cc1Cc1ccc(C(=O)NCCS)o1)C(C)(C)CCC2(C)C` [Compound 609], the remaining activity at 10 µM worked out at 47%.

As for `Cc1cc2c(cc1Cc1ccc(C(=O)N(Cc3cccnc3)Cc3cccnc3)o1)C(C)(C)CCC2(C)C` [Compound 610], the remaining activity at 10 µM amounted to 0%. Regarding `COC(CN(C)C(=O)c1ccc(Cc2cc3c(cc2C)C(C)(C)CCC3(C)C)o1)OC` [Compound 611], the remaining activity at 10 µM is 11%.

On to `Cc1cc2c(cc1Cc1ccc(C(=O)N(Cc3ccsc3)C3CCN(Cc4ccccc4)C3)o1)C(C)(C)CCC2(C)C` (centres unmarked) [Compound 612], for which the remaining activity at 10 µM came out at 9%. As for `Cc1cc2c(cc1Cc1ccc(C(=O)NCc3cccc(CNC(=O)C(Cc4ccccc4)c4ccccc4)c3)o1)C(C)(C)CCC2(C)C` (centres unmarked) [Compound 613], the figure is 53%; as for `COc1cc2c(cc1OC)C(CC#N)N(C(=O)c1ccc(Cc3cc4c(cc3C)C(C)(C)CCC4(C)C)o1)CC2` (centres unmarked) [Compound 614], 48%; as for `CCN(CC)CCNC(=O)c1ccc(Cc2cc3c(cc2C)C(C)(C)CCC3(C)C)o1` [Compound 615], 7%. As for `Cc1cc2c(cc1Cc1ccc(C(=O)NC(C)c3ccccc3)o1)C(C)(C)CCC2(C)C` (centres unmarked) [Compound 616], the figure is 29%.

Turning to `Cc1cc2c(cc1Cc1ccc(C(=O)NCCCCCCO)o1)C(C)(C)CCC2(C)C` [Compound 617], the remaining activity at 10 µM is -2%. As to `Cc1cc2c(cc1Cc1ccc(C(=O)N(Cc3ccoc3)C3CCN(Cc4ccccc4)C3)o1)C(C)(C)CCC2(C)C` (centres unmarked) [Compound 618], the remaining activity at 10 µM was 9%. The result for `Cc1cc2c(cc1Cc1ccc(C(=O)N(C)CCC3OCCO3)o1)C(C)(C)CCC2(C)C` [Compound 619] reads 5%; that for `Cc1cc2c(cc1Cc1ccc(C(=O)NCC(C)(C)CN(C)C)o1)C(C)(C)CCC2(C)C` [Compound 620], 3%; that for `Cc1cc2c(cc1Cc1ccc(C(=O)N3CCCC3C(=O)NC(c3ccccc3)c3ccccc3)o1)C(C)(C)CCC2(C)C` (centres unmarked) [Compound 621], 43%. With `Cc1cc2c(cc1Cc1ccc(C(=O)NCCc3ccc(Oc4ccccc4)cc3)o1)C(C)(C)CCC2(C)C` [Compound 622], the remaining activity at 10 µM is 43%. The result for `Cc1cc2c(cc1Cc1ccc(C(=O)N(Cc3cccn3C)C3CCN(Cc4ccccc4)C3)o1)C(C)(C)CCC2(C)C` (centres unmarked) [Compound 623] reads 2%; that for `C=C(C)CNC(=O)c1ccc(Cc2cc3c(cc2C)C(C)(C)CCC3(C)C)o1` [Compound 624], 8%. For `Cc1cc2c(cc1Cc1ccc(C(=O)NC(C)CN(C)C)o1)C(C)(C)CCC2(C)C` (centres unmarked) [Compound 625], the remaining activity at 10 µM is 8%. As for `Cc1cc2c(cc1Cc1ccc(C(=O)NC3CCS(=O)(=O)C3)o1)C(C)(C)CCC2(C)C` (centres unmarked) [Compound 626], the figure is 10%; as for `Cc1cc2c(cc1Cc1ccc(C(=O)NCCCCCCN(C)C)o1)C(C)(C)CCC2(C)C` [Compound 627], -6%; as for `CCOC(=O)N1CCN(C(=O)c2ccc(Cc3cc4c(cc3C)C(C)(C)CCC4(C)C)o2)CC1` [Compound 628], 35%. As for `Cc1cc2c(cc1Cc1ccc(C(=O)N(Cc3ccccc3)C(C)C)o1)C(C)(C)CCC2(C)C` [Compound 629], the figure is 17%. As for `Cc1cc2c(cc1Cc1ccc(C(=O)N(CCC(c3ccccc3)c3ccccc3)Cc3ccco3)o1)C(C)(C)CCC2(C)C` [Compound 630], the figure is 58%; as for `Cc1cc2c(cc1Cc1ccc(C(=O)N(Cc3cccc4ccccc34)C3CCN(Cc4ccccc4)C3)o1)C(C)(C)CCC2(C)C` (centres unmarked) [Compound 631], 43%. With `Cc1cc2c(cc1Cc1ccc(C(=O)NCCc3ccc(F)cc3)o1)C(C)(C)CCC2(C)C` [Compound 632], the remaining activity at 10 µM amounted to 21%. On to `Cc1cc2c(cc1Cc1ccc(C(=O)NC(C)(C)CO)o1)C(C)(C)CCC2(C)C` [Compound 633], for which the remaining activity at 10 µM is 10%.

`Cc1cc2c(cc1Cc1ccc(C(=O)N3CCC4(C)CC(C)(C)CC45CC35)o1)C(C)(C)CCC2(C)C` (centres unmarked) [Compound 634]: the remaining activity at 10 µM came out at 1%.

Regarding `Cc1cccc(N2CCN(C(=O)c3ccc(Cc4cc5c(cc4C)C(C)(C)CCC5(C)C)o3)CC2C)c1` (centres unmarked) [Compound 635], the remaining activity at 10 µM stood at 27%. As for `Cc1cc2c(cc1Cc1ccc(C(=O)N(C)CCC#N)o1)C(C)(C)CCC2(C)C` [Compound 636], the remaining activity at 10 µM was 17%. The result for `Cc1cc2c(cc1Cc1ccc(C(=O)N(Cc3ccccc3)[C@@H](C)c3ccccc3)o1)C(C)(C)CCC2(C)C` [Compound 637] reads 55%; that for `Cc1cc2c(cc1Cc1ccc(C(=O)N(Cc3ccc(C(C)C)cc3)C3CCN(Cc4ccccc4)C3)o1)C(C)(C)CCC2(C)C` (centres unmarked) [Compound 638], 53%; that for `Cc1cc2c(cc1Cc1ccc(C(=O)NC(C)c3ccc([N+](=O)[O-])cc3)o1)C(C)(C)CCC2(C)C` (centres unmarked) [Compound 639], 57%. On to `CSCCCNC(=O)c1ccc(Cc2cc3c(cc2C)C(C)(C)CCC3(C)C)o1` [Compound 640], for which the remaining activity at 10 µM came to 2%.

As for `Cc1cc2c(cc1Cc1ccc(C(=O)N3CCC(O)CC3)o1)C(C)(C)CCC2(C)C` [Compound 641], the remaining activity at 10 µM amounted to 23%.

As to `Cc1cc2c(cc1Cc1ccc(C(=O)NCCc3ccc(Cl)cc3)o1)C(C)(C)CCC2(C)C` [Compound 642], the remaining activity at 10 µM came out at 19%. As to `COc1ccc(CCNC(=O)c2ccc(Cc3cc4c(cc3C)C(C)(C)CCC4(C)C)o2)cc1Br` [Compound 643], the remaining activity at 10 µM turned out to be 23%.

For the compound `CCN(Cc1ccc(C)cc1)C(=O)c1ccc(Cc2cc3c(cc2C)C(C)(C)CCC3(C)C)o1` [Compound 644], the remaining activity at 10 µM is 22%.

Regarding `Cc1cc2c(cc1Cc1ccc(C(=O)N(CCC(c3ccccc3)c3ccccc3)Cc3ccccn3)o1)C(C)(C)CCC2(C)C` [Compound 645], the remaining activity at 10 µM is 51%.

With `CCN1CC(N(Cc2ccccc2C#N)C(=O)c2ccc(Cc3cc4c(cc3C)C(C)(C)CCC4(C)C)o2)CN1CC` [Compound 646], the remaining activity at 10 µM was 0%. Turning to `COc1cc(OC)cc(N2CCN(C(=O)c3ccc(Cc4cc5c(cc4C)C(C)(C)CCC5(C)C)o3)CC2)c1` [Compound 647], the remaining activity at 10 µM was 35%. The result for `CSCCNC(=O)c1ccc(Cc2cc3c(cc2C)C(C)(C)CCC3(C)C)o1` [Compound 648] reads 4%. As for `Cc1cc2c(cc1Cc1ccc(C(=O)N3CCC4(CC3)C(=O)NCN4c3ccccc3)o1)C(C)(C)CCC2(C)C` [Compound 649], the figure is 28%; as for `Cc1cc2c(cc1Cc1ccc(C(=O)NC3CCCCC3O)o1)C(C)(C)CCC2(C)C` (centres unmarked) [Compound 650], 4%. As for `Cc1cc2c(cc1Cc1ccc(C(=O)N3CCCC3C(=O)OCc3ccccc3)o1)C(C)(C)CCC2(C)C` (centres unmarked) [Compound 651], the figure is 15%. Regarding `Cc1cc2c(cc1Cc1ccc(C(=O)N3CCC(NC(=O)OC(C)(C)C)C3)o1)C(C)(C)CCC2(C)C` (centres unmarked) [Compound 652], the remaining activity at 10 µM was found to be 19%. With `CCN1CC(N(Cc2ccc(N(C)C)cc2)C(=O)c2ccc(Cc3cc4c(cc3C)C(C)(C)CCC4(C)C)o2)CN1CC` [Compound 653], the remaining activity at 10 µM amounted to 6%. The result for `Cc1cc2c(cc1Cc1ccc(C(=O)NC(C)(C)CC(C)(C)C)o1)C(C)(C)CCC2(C)C` [Compound 654] reads 34%; that for `CCSCCNC(=O)c1ccc(Cc2cc3c(cc2C)C(C)(C)CCC3(C)C)o1` [Compound 655], 2%. The result for `Cc1cc2c(cc1Cc1ccc(C(=O)N3CCC(O)(c4ccc(Br)cc4)CC3)o1)C(C)(C)CCC2(C)C` [Compound 656] reads 52%.
